Measurements reported in PubChem BioAssay (NCI).
Values joined by “and” are separate entries in the source; they are usually repeats but may differ in a detail not shown here. Equal entries are not always repeated.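 96-well plates; 48 h exposure; 5 concentrations. Endpoints by linear interpolation between flanking doses. Not reached: highest tested concentration assigned. GI50 marks 50% less growth. TGI denotes the concentration required for complete inhibition of growth.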

Legend:
Assay in all cases: growth of human tumour cells (NCI), 48 h
[1] = system: MOLT-4 leukemia
[2] = system: EKVX NSCLC
[3] = system: OVCAR-3 ovarian
[4] = system: TK-10 renal
[5] = system: LOX IMVI melanoma
[6] = system: NCI-H23 lung
[7] = system: SF-539 CNS
[8] = system: U251 CNS
[9] = system: A549 NSCLC
[10] = system: SR leukemia

Compound	TGI [1]	TGI [2]	TGI [3]	TGI [4]	TGI [5]	TGI [6]	TGI [7]	TGI [8]	TGI [9]	GI50 [1]	GI50 [2]	GI50 [3]	GI50 [4]	GI50 [5]	GI50 [6]	GI50 [7]	GI50 [8]	GI50 [9]	GI50 [10]	TGI [10]
COC(=O)c1ccc(/C=C/S(=O)(=O)c2ccccc2)cc1	> 100 µM	> 100 µM	> 100 µM	> 100 µM	> 100 µM	> 100 µM	> 100 µM	> 100 µM	> 100 µM											
COc1ccc2c(c1)c(-c1ccc(-c3cn(C)c4ccc(OC)cc34)o1)cn2C	> 100 µM	23.4 µM	29.3 µM	> 100 µM	> 100 µM	> 100 µM	9.27 µM	13.4 µM	> 100 µM	> 100 µM	5.48 µM	8.51 µM	11 µM	10.4 µM	17.3 µM	2.47 µM	3.66 µM	18.4 µM		
CCOc1ccc(N=Cc2ccc3ccccc3n2)cc1	> 100 µM	> 100 µM	> 100 µM	> 100 µM	> 100 µM	> 100 µM	> 100 µM	> 100 µM	> 100 µM											
Cc1ccc(-c2cc(=O)c3cc(C)c(C)c(C(=O)O)c3o2)cc1[N+](=O)[O-]	> 100 µM	> 100 µM	> 100 µM	> 100 µM	> 100 µM	> 100 µM	> 100 µM	> 100 µM	> 100 µM											
CN(C)C1C(=O)C(C(N)=O)=C(O)C2(O)C(=O)C3=C(O)c4c(O)cccc4C(C)(O)C3CC12 (configuration not stated)	46.5 µM and > 100 µM	> 100 µM	> 100 µM	> 100 µM	76.5 µM and > 100 µM	58.5 µM and > 100 µM			> 100 µM	23.5 µM and > 100 µM		44.5 µM and > 100 µM			31.4 µM and > 100 µM				26.4 µM and > 100 µM	55.1 µM and > 100 µM
CN[C@H]1CC[C@]23C[C@]24CC[C@]2(C)[C@@H]([C@H](C)N(C)C)CC[C@@]2(C)[C@@H]4CC[C@H]3C1(C)C	60.1 µM	37.9 µM	33.6 µM	39.3 µM	18.9 µM	35.6 µM	26.7 µM	27.6 µM	39.2 µM											
O=C1c2ccccc2-c2c1c1ccc([N+](=O)[O-])cc1c(=O)n2CCCn1ccnc1	4.64 µM	> 21.8 µM	2.12 µM	9.31 µM	0.33 µM	0.292 µM	0.0838 µM	0.69 µM	21.9 µM	2.12 µM	6.16 µM	0.334 µM	1.16 µM	0.152 µM	0.119 µM	0.0149 µM	0.157 µM	3.17 µM		
CC(CCC(=O)O)c1ccc(Br)cc1 (configuration not stated)	> 100 µM	> 100 µM	> 100 µM	> 100 µM	> 100 µM	> 100 µM		> 100 µM	> 100 µM											> 100 µM
CC1=CC2=C(C#N)C(=O)OC2(C)C(c2ccccc2)C1 (configuration not stated)	> 100 µM	> 100 µM	> 100 µM	> 100 µM	> 100 µM		> 100 µM	> 100 µM	> 100 µM											
CCCCCN(CCCCC)C(=O)[C@H](CCC(=O)OCc1ccccc1)NC(=O)c1cc2ccccc2[nH]1	> 100 µM	> 100 µM	> 100 µM		> 100 µM	> 100 µM	> 100 µM	> 100 µM	> 100 µM											
CCN(CC)CCOc1ccc(Cc2ccccc2)cc1		> 100 µM	> 100 µM	92.9 µM	33.3 µM	> 100 µM	> 100 µM	> 100 µM	> 100 µM		26.4 µM	26.9 µM	23.3 µM	15.2 µM	33.4 µM	32.1 µM	26.5 µM	49.8 µM		
CCC1(N)C(=O)OCc2c1cc1n(c2=O)Cc2cc3ccccc3nc2-1 (configuration not stated)	> 41.7 µM	> 100 µM	42.6 µM and > 100 µM	> 100 µM	28.2 µM and 33.6 µM	38.2 µM and 54.4 µM	11.8 µM and > 47.9 µM	> 100 µM	> 100 µM	1.83 µM	20.7 µM	17.2 µM	51 µM			2.93 µM	4.9 µM	5.05 µM		
O=C(Nc1ccc(N2CCNCC2)cn1)c1[nH]ncc1Nc1ncnc2sccc12	7.64 µM	13.5 µM	4.38 µM	14.8 µM		4.75 µM	3.39 µM	3.35 µM	3.45 µM	1.99 µM	2.91 µM	2.02 µM	3.62 µM		2.02 µM	1.69 µM	1.62 µM	1.66 µM		
